Reference: US7169393B2, “Antigenic peptide fragments of VapA protein, and uses thereof” (Rural Industries Research & Development Coporation, priority 2000, dated 2007)

System: antibodies in sera of foals (goat anti-horse IgG detection)
Test: Peptide ELISA: biotinylated overlapping VapA peptides screened with foal sera
Assay type: binding
Conditions: for number of positive sera recognizing (positive with) the peptide: fifty-one positive sera (foals with current R. equi disease), 1 in 250, positive = at least twice background OD at 450 nm
Source text: Biotinylated peptides synthesized by Mimotopes, Victoria, Australia were used in all assays. The peptide bank used in the initial screening of sera was designed based upon the published sequence of VapA (Genbank accession No: D21236). A total of 50 overlapping peptides, each 11 amino acid residues in length (offset by 3 residues at a time) were synthesized beginning from the predicted signal peptide cleavage site between amino acids 31 and 32 up to and including the C terminus.
A total of seventy foal sera, most of these from animals aged between 4 to 12 weeks, were used to screen the peptides. Fifty-one sera were from foals with current R. equi disease (positive sera). Sixteen sera were from foals with no known history of R. equi infection and three sera were from foals that had recovered from R. equi infection 10 months previously (negative sera). Thirty-nine of the positive sera and all negative sera were obtained from studs in South Australia and New South Wales, Australia.
Biotin-SGSG(spacer) labelled peptide units were used as antigen targets. Neutravidin bound to the surface of a micro-titre plate was then used to bind the biotin labelled peptide to the plate. The procedure is as follows:
A solution of neutravidin was diluted 1 in 300 in sterile distilled water to a final concentration of 3.3 μg/ml, and 100 μl per well was added to a micro-titre plate and the plate was left overnight at 37° C. 200 μl 1% casein/1×PBS/0.05% Tween 20 was then added to each well and the plate was left for at least 1 hour at room temperature (or at 4° C. if left longer) before the solution in the plate was flicked out. The plate was then washed five times with 1×PBS/0.05% Tween 20 using an automatic plate washer and the plates were dried by slapping against absorbent paper. […]
The plate was then read using an ELISA plate reader at 450 nm.
Interpretation of data. […] The background OD was the mean of the lowest 50% of all OD values obtained with that particular serum and all OD readings that were twice this value were considered positive. […]

Row | Sequence | number of positive sera recognizing (positive with) the peptide | number of positive sera positive with only this peptide (fifty-one positive sera, fifty-peptide bank)
1 | NLQKDEPNGRA [Seq I.D. No. 47] | fifty-one | two
2 | YLNINFFDSSG [Seq I.D. No. 133] | Ten | 
